Measured values: PMC10313921, “A living ex vivo platform for functional, personalized brain cancer diagnosis” (Cell Reports Medicine, 2023)

Tests used:
[1] = system: 7 cell lines (MB231Br, LN229, U373WT, U373KO, GBM8, MS21, PDIPG); assay: Drug screening on OBSCs, summary over the panel of seven tumor lines; type: cell-based, human; conditions: for response / killing over the 7 cell lines: number of lines responding
Protocol: Tumor cells (0.17 μL, 25,000 cells) were seeded onto OBSCs 2h after slicing, with one tumor seeded in the center of each hemisphere for a total of two tumor foci per OBSC. BSM was changed 24h after slicing. Fluorescence images were taken 0 h, 24 h, and 96 h post-seeding for normalization of tumor size. Bioluminescence readouts were also taken at 0 h, 24 h, and 96 h post seeding for assessment of cell viability. Luciferin was added underneath the culture insert and allowed to incubate for 10 min before bioluminescence measurement on an AMI optical imaging system.
(§1) Tumor cells were seeded onto OBSCs 2h after slicing as described above. One day after tumor seeding, six concentrations of each drug were diluted in the media underneath each culture insert, or XRad was applied using an X-Rad 320 Precision X-ray machine (n = 4 tumor foci per concentration; n ≥ 24 tumor foci per drug per cell line). Three days after treatment, the bioluminescence of live tumor cells was measured using an AMI optical imager (Spectral Instruments) and dose-response curves were generated. Tumor survival was normalized to day one tumor fluorescence and compared to an untreated control group.
Several weighted parameters were factored into an overall drug sensitivity score.
(§2) For DSS parameters 1–6, therapeutic windows were calculated by comparing OBSC toxicity and tumor response at the doses where tumor kill passed through the DSS parameter (Table S1 and S3). For DSS parameter 7, the therapeutic window was calculated by comparing the slopes through the tumor EC50 and the OBSC tox EC50. For DSS parameter 8, the therapeutic window was calculated by comparing the areas under tumor kill and OBSC tox curves. Normalized therapeutic window ratios for DSS parameters 1–8 within each drug-tumor-OBSC interaction were calculated in the following manner: within each window, values ranged from +1 to −1, where values approaching +1 signify increasing tumor kill relative to normal tissue toxicity, and values approaching −1 indicate agents where tumors remained highly viable while toxicity to the normal OBSC tissue was elevated. DSS parameters 9–11 were determined based on the behavior of the tumor in response to the drug, as defined above.
All individually weighed parameters were added together to generate the DSS. Overall DSS from 0 to 100 signify increasing efficacy in tumor kill relative to OBSC toxicity, while scores from 0 to −100 describe scenarios in which tumors thrive more effectively than OBSCs for a given treatment. Dose-response values were calculated via linear interpolation of raw data, not from best-fit curve equations.

[2] = system: LBM patient tumor tissue (Stage III NSCLC adenocarcinoma); assay: Drug screening of uncultured patient tumor tissue LBM on OBSCs; type: cell-based; conditions: Homo sapiens; for EC90: dose required to kill 90% of the tumor
Protocol: as §1
(§3) To engraft onto OBSCs, the cryopreserved/thawed or fresh brain tumor tissue was filtered through a 100 μm cell strainer. Each 50 mg of tissue was transfected with 1mL mcherry-FLuc Lentivirus at 1.5e7 vg/ml with 1μL polybrene for 4h at 37°C. After incubation, the brain tumor tissue was washed with PBS three times to remove the residual virus and reconstituted in PBS with a final volume of 150 μL. […] The viability of the patient tissue was measured by an AMI optical imaging system with the addition of 1.5 mg/mL luciferin underneath the culture insert. […]
as §2, with “DSS parameters 9–11 were determined based on the behavior of the tumor in response to the drug, as defined above.” left out

[3] = system: SE-I patient tumor tissue (WHO I subependymoma); assay: Drug screening of uncultured patient tumor tissue SE-I on OBSCs; type: cell-based; conditions: Homo sapiens; for EC90: dose required to kill 90% of the tumor
Protocol: as §1, §3
as §2, with “DSS parameters 9–11 were determined based on the behavior of the tumor in response to the drug, as defined above.” left out

[4] = system: MG-I patient tumor tissue (WHO I meningioma); assay: Drug screening of uncultured patient tumor tissue MG-I on OBSCs; type: cell-based; conditions: Homo sapiens, dose required to kill 90% of the tumor
Protocol: as §1
(§4) To engraft onto OBSCs, the cryopreserved/thawed or fresh brain tumor tissue was filtered through a 100 μm cell strainer. […] The viability of the patient tissue was measured by an AMI optical imaging system with the addition of 1.5 mg/mL luciferin underneath the culture insert. […]
(§5) For DSS parameters 1–6, therapeutic windows were calculated by comparing OBSC toxicity and tumor response at the doses where tumor kill passed through the DSS parameter (Table S1 and S3). For DSS parameter 7, the therapeutic window was calculated by comparing the slopes through the tumor EC50 and the OBSC tox EC50. For DSS parameter 8, the therapeutic window was calculated by comparing the areas under tumor kill and OBSC tox curves. […]

[5] = system: MMG-II patient tumor tissue (WHO grade II meningioma, multiple tumors); assay: Drug screening of uncultured patient tumor tissue MMG-II on OBSCs; type: cell-based; conditions: Homo sapiens, dose required to kill 90% of the tumor
Protocol: as §1, §3
as §2, with “DSS parameters 9–11 were determined based on the behavior of the tumor in response to the drug, as defined above.” left out

[6] = system: ODDG patient tumor tissue (WHO grade III oligodendroglioma); assay: Drug screening of uncultured patient tumor tissue ODDG on OBSCs; type: cell-based; conditions: Homo sapiens
Protocol: as §1, §4, §5

[7] = system: GBM-MG patient tumor tissue (GBM w/ WHO I meningioma); assay: Drug screening of uncultured patient tumor tissue GBM-MG on OBSCs; type: cell-based; conditions: Homo sapiens, dose required to kill 90% of the tumor
Protocol: as §1, §4, §5

[8] = dose required to kill 50% of the tumor

With `O=NN(CCCl)C(=O)NC1CCCCC1` [Lomustine] the “response / killing over the 7 cell lines” value [1] was “robust response” and the EC90 [2] was greater than 10 µM.

`COc1cc([C@@H]2c3cc4c(cc3[C@@H](O[C@@H]3O[C@@H]5CO[C@@H](C)O[C@H]5[C@H](O)[C@H]3O)[C@H]3COC(=O)[C@H]23)OCO4)cc(OC)c1O` [Etoposide] was tested, and the “response / killing over the 7 cell lines” value [1] was 6 of 7.

With `Nc1ncn([C@@H]2O[C@H](CO)[C@@H](O)[C@H]2O)c(=O)n1` [Azacitidine] the EC90 [3] was greater than 10 µM, the EC90 [4] was greater than 10 µM and the IC50 ([1]; Homo sapiens, read-out: IC50 values, range over the cell lines) was 200 to 400 µM. For the same molecule, the “response / killing over the 7 cell lines” value [1] was 7 of 7.

`Nc1ccn([C@@H]2O[C@H](CO)[C@@H](O)C2(F)F)c(=O)n1` [Gemcitabine] was tested, and the EC90 [5] was greater than 10 µM.

For `CC(=O)Nc1cccc(-n2c(=O)n(C3CC3)c(=O)c3c(Nc4ccc(I)cc4F)n(C)c(=O)c(C)c32)c1` [Trametinib], the EC90 [5] was greater than 10 µM.

Molecule `CC[C@]1(O)C[C@H]2CN(CCc3c([nH]c4ccccc34)[C@@](C(=O)OC)(c3cc4c(cc3OC)N(C=O)[C@H]3[C@@](O)(C(=O)OC)[C@H](OC(C)=O)[C@]5(CC)C=CCN6CC[C@]43[C@@H]65)C2)C1` [Vincristine] has an EC90 [5] greater than 10 µM.

In the case of `Cn1nnc2c(C(N)=O)ncn2c1=O` [Temozolomide], the EC50 [3, 8] is reported as greater than 100 µM, the EC90 [3] is reported as greater than 10 µM and the EC90 [4] is reported as greater than 10 µM. The EC50 [6, 8] was greater than 100 µM, the EC90 ([6]; dose required to kill 90% of the tumor) was greater than 10 µM and the “DSS scores, range among tumors” value [1] was −62 to 96. The EC50 [2, 8] was greater than 100 µM, the EC90 [2] was greater than 10 µM and the EC90 [7] was greater than 10 µM.

For `N.N.O=C([O-])C1(C(=O)[O-])CCC1.[Pt+2]` [Carboplatin], the “response / killing over the 7 cell lines” value [1] was “robust response”.
